Measured values taken from the NIST ThermoML archive (doi:10.1021/acs.jced.7b00819).
Numbers after ± are expanded uncertainties.

Assays:
[1] = Crystal; DTA
[2] = Molar enthalpy of transition or fusion; details: Crystal; DSC

Compound | Normal melting temperature [1] | Molar enthalpy of transition or fusion [2]
CCOC(=O)C1=NN(c2ccc(Cl)cc2Cl)[C@](C)(C(=O)OCC)C1 | 30.5 ± 0.7 °C | 5.88 ± 0.263 kcal/mol
CCOC(=O)C1=NN(c2ccc(Cl)cc2Cl)C(C)(C(=O)OCC)C1 (centres undefined) | 49.2 ± 0.7 °C | 4.4 ± 0.239 kcal/mol
